Experimental data reported in patent US20190054186A1, “Magnetic Nanoparticle-Polymer Complexes and uses Thereof” (The University of North Carolina at Chapel Hill, priority 2016, published 2019).

Experiments:
[1] = tested on: actin cytoskeleton of MDA-MB-231, BT474 and MCF10A cells; test: Actin cytoskeleton confocal imaging after pulsed AC magnetic field; assay type: cell-based, human; conditions: cancerous cells, CD alone (100 nM)
Protocol: For confocal studies, MDA-MB-231, BT474 and MCF10A cells were plated on Lab-Tek II Chamber slides at a concentration of 1×10^5 cells/well and allowed to grow overnight. The cells were then treated with 0.1 mg/mL Alexa Fluor® 647-PAA-P85-MNP for 24 h followed by thorough washing with acid saline and replacement with complete media. The cells were incubated with 100 nM CD for 1 h to enact cytoskeletal damage in a nonlethal capacity. After washing, the cells were exposed to the pulsed AC magnetic field (50 Hz, 50 kA/m) (10 min on, 5 min off, total exposure 30 min). Appropriate controls included cells not exposed to the magnetic field and untreated cells. Cells were then incubated at 37° C. for 24 h, fixed using 4% paraformaldehyde and permeabilized using 0.5% Triton-X 100. Fixed cells were stained with ActinGreen 488 (Life Technologies, Carlsbad, Calif.), a phalloidin-based actin stain and Hoechst 33342. Images were acquired using a Zeiss CLSM 710 Spectral Confocal Laser Scanning Microscope with the 63×/1.4 Oil Plan Apo lens.

[2] = tested on: lysosomes of MDA-MB-231, BT474 and MCF10A cells; test: Lysosomal membrane permeabilization, acridine orange assay; assay type: cell-based, human; conditions: positive control, 150 μM, three hours, no field
Protocol: MDA-MB-231, BT474 and MCF10A cells were seeded at 1×10^5 cells/well in 8-well Lab-Tek II Chamber slides. Cells were allowed to adhere for several days and were treated with PAA-P85-MNPs at a concentration of 0.1 mg/mL. After 24 h, the cells were washed and then exposed to an AC magnetic field (50 Hz, 50 kA/m) using the pulsed exposure regime for a total of 30 min. Three hours post exposure, cells were treated for 15 min with 10 μg/mL acridine orange stain. The cells were washed 3× with PBS and kept in complete media for imaging. Positive control cells were treated with 150 μM hydrogen peroxide for 3 h followed by thorough washing and staining with acridine orange. Live cell images were acquired using a Zeiss CLSM 710 Spectral Confocal Laser Scanning Microscope with the 63×/1.4 Oil Plan Apo lens.

Row | Compound | actin cytoskeleton structure [1] | lysosomal membrane permeabilization (acridine orange) [2]
1 | C=C1[C@@H](C)[C@H]2[C@H](Cc3ccccc3)NC(=O)[C@]23[C@H](OC(C)=O)/C=C/[C@@](C)(O)C(=O)[C@@H](C)C/C=C/[C@H]3[C@@H]1O [CD, Cytochalasin D] | No significant differences in the cytoskeleton structure | 
2 | OO [hydrogen peroxide] |  | loss of punctuate red fluorescence
